Experimental data taken from patent US9603858B2, “Compositions for preventing and treating an immune system disorder” (RAISIO NUTRITION LTD., priority 2010, dated 2017).

Experiments:
[1] = test system: PBMCs from asthma patients; assay: Cytokine production in PHA stimulated PBMCs cultured ex vivo with sitostanol; type: cell-based, human; conditions: sitostanol 1.2 μM, 52 hours PHA stimulation
Source text: 20 people were enrolled in the study: 10 asthma patients and 10 healthy controls. Healthy controls were matched to the asthma patients in sex, age and body mass index (BMI). Exclusion criteria were smoking, diabetes, autoimmune diseases, inflammatory diseases, and the use of plant stanol or plant sterol enriched food products. Blood was taken twice from each participant, with a four-week interval. Peripheral blood mononuclear cells (PBMCs) were isolated and cultured with either cholesterol or sitostanol added to the culture. The concentration of PBMCs in the test culture was the same as in blood naturally. The concentrations of sitostanol and cholesterol were 1.2 μM. After 52 hours of stimulation with PHA (phytohemagglutinin), cytokine concentrations in the culture medium were determined. Cholesterol was added as a control to see whether the observed effects were specific plant stanol effects.

TLR2 = molecular target: T1, TLR2 (Homo sapiens, UniProt O60603); assay: Mechanism of the Th1 shift: TLR2 activation; type: cell-based
T1 construct: endogenous in cells
T1 sequence (O60603 21-784): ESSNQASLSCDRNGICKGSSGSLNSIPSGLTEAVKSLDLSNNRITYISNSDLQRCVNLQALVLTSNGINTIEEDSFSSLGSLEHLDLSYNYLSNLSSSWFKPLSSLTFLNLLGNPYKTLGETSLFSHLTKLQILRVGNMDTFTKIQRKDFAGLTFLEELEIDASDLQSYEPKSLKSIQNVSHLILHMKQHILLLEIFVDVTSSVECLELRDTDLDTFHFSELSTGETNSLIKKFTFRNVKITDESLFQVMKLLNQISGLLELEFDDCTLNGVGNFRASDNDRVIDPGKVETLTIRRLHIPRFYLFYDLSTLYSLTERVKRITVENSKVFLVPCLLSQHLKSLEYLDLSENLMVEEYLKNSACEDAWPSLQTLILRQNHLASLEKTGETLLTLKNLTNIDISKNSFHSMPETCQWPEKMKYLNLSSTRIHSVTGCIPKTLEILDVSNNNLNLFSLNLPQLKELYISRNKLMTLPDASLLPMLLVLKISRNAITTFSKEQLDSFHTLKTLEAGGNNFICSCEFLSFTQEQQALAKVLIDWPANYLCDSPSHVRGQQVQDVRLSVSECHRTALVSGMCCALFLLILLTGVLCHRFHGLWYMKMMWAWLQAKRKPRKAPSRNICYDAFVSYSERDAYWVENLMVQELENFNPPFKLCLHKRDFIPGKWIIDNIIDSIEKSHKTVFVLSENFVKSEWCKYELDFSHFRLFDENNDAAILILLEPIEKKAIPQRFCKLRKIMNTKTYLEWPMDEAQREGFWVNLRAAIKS

SMILES: CC[C@H](CC[C@@H](C)[C@H]1CC[C@H]2[C@@H]3CC[C@H]4C[C@@H](O)CC[C@]4(C)[C@H]3CC[C@]12C)C(C)C [sitostanol]
- IFNγ concentration in the culture medium, change vs. control condition ([1]; FIG. 1): increases
- IL-2 concentration in the culture medium, change vs. control condition ([1]; FIG. 1): increases
- IL-10 production in PBMCs from asthma patients, change vs. control condition ([1]; FIG. 2): induces IL-10 production
- Th1 shift via activation of TLR2 (TLR2): induces this Th1 shift via activation of TLR2
